From US20240041042A1, “1-(PYRIDYL)-5-AZINYLPYRAZOLE DERIVATIVES, AND THEIR USE FOR CONTROL OF UNDESIRED PLANT GROWTH” (Bayer Aktiengesellschaft, priority 2020, published 2024)
Like-named read-outs stand apart in the source and are kept apart here.

Legend:
Format in all cases: in vivo
[1] = system: Echinochloa crus-galli (ECHCG); assay: Pre-emergence herbicidal action against ECHCG; conditions: dosage 320 g/ha
In short: (§1)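 Read-out is visual percent damage relative to untreated pots, with 100% meaning dead plants and 0% meaning no difference, assessed roughly three weeks after treatment. Compounds were applied pre-emergence to the covering soil at up to 320 g/ha.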

[2] = system: Triticum aestivum (TRZAS); conditions: crop plant compatibility, effect vs untreated controls
In short: (§2)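 Test crops were treated 2 to 3 weeks after sowing, once they reached one leaf, by spraying compound in water with 0.5% additive at 600 l/ha. Visual scoring compared them with untreated controls roughly 3 weeks on, and appendices a, b and c denote different doses.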

[3] = system: Oryza sativa (ORYSA); conditions: crop plant compatibility, effect in comparison to untreated controls
In short: as §2

[4] = system: Zea mays (ZEAMX); conditions: crop plant compatibility, effect vs untreated controls
In short: as §2

[5] = system: Glycine max (GLXMA); assay: Post-emergence crop plant compatibility, GLXMA; conditions: post-emergence, 80 g/ha, effect in comparison to untreated controls
Procedure: Seeds of monocotyledonous and dicotyledonous weeds and crop plants are placed in sandy loam in plastic or organic planting pots, covered with soil and cultivated in a greenhouse under controlled growth conditions. 2 to 3 weeks after sowing, the test plants are treated at the one-leaf stage. The compounds of the invention, formulated in the form of wettable powders (WP) or as emulsion concentrates (EC), are then sprayed onto the green parts of the plants as aqueous suspension or emulsion with addition of 0.5% additive at a water application rate of 600 l/ha (converted). After the test plants have been kept in the greenhouse under optimum growth conditions for about 3 weeks, the activity of the preparations is rated visually in comparison to untreated controls. For example, 100% activity=the plants have died, 0% activity=like control plants.
The observed effects on selected crop plants are reported here in comparison to the untreated controls (values in %). The appendices “a”, “b” and “c” give differentiation by dosage used with otherwise the same crop plants tested.

[6] = system: Matricaria inodora (MATIN); assay: Pre-emergence herbicidal action against MATIN; conditions: dosage 320 g/ha
In short: as §1

[7] = system: Abutilon theophrasti (ABUTH); assay: Pre-emergence herbicidal action against ABUTH; conditions: Dosage column 320 g/ha (title prints 3200 g/ha); scored visually after about 3 weeks; 100% = plants have died
In short: as §1

[8] = system: Triticum aestivum (TRZAS); conditions: pre-emergence, crop plant compatibility, in comparison to untreated controls
In short: (§3)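 Scoring: visual, % of untreated control, about 3 weeks after a pre-emergence application to the soil surface. Application used WP or EC formulations diluted in water with 0.5% additive at 600 l/ha; dosage levels are marked by suffixes a, b and c.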

[9] = system: Glycine max (GLXMA); conditions: pre-emergence, 80 g/ha, crop plant compatibility, in comparison to untreated controls
In short: as §3

[10] = system: Oryza sativa (ORYSA); conditions: pre-emergence, crop plant compatibility, in comparison to untreated controls
In short: as §3

[11] = system: Zea mays (ZEAMX); conditions: pre-emergence, 80 g/ha, crop plant compatibility, in comparison to untreated controls
In short: as §3

[12] = system: Echinochloa crus-galli (ECHCG); assay: Post-emergence herbicidal action against ECHCG; conditions: dosage 320 g/ha
In short: (§4)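 Post-emergence greenhouse spray, one-leaf stage, 600 l/ha water plus 0.5% additive; WP or EC formulations; application rates 320 g/ha or lower. Visual % damage vs untreated controls at ~3 weeks.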

[13] = system: Viola tricolor (VIOTR); assay: Post-emergence herbicidal action against VIOTR; conditions: 320 g/ha
In short: as §4

[14] = system: Setaria viridis (SETVI); assay: Pre-emergence herbicidal action against SETVI; conditions: dosage 320 g/ha
In short: as §1

[15] = system: Brassica napus (BRSNW); conditions: crop plant compatibility, in comparison to untreated controls
In short: as §3

Row | Structure (SMILES) | Pre-emergence action against ECHCG in % [1] | Post-emergence action against ORYSA in % ([3]; 80 g/ha) | Post-emergence action against GLXMA in % [5] | Pre-emergence action against MATIN in % [6] | Pre-emergence action against TRZAS in % ([8]; 80 g/ha) | Pre-emergence action against GLXMA in % [9] | Pre-emergence action against ORYSA in % ([10]; 80 g/ha) | also measured
1 | O=C(CSc1nn(-c2ccccn2)c(-c2cncc(F)c2)c1Br)NC1CC1 [Example I-201] | 90% | 0% | 20% | 80% | 0% | 0% | 0% | Post-emergence action against TRZAS in % ([2]; 80 g/ha): 0%; Post-emergence action against TRZAS in % ([2]; 320 g/ha): 10%; Post-emergence action against ORYSA in % ([3]; 320 g/ha): 0%; Post-emergence action against ZEAMX in % ([4]; 80 g/ha): 0%; Post-emergence action against ZEAMX in % ([4]; 320 g/ha): 20%; Pre-emergence action against ABUTH [7]: 80%; Pre-emergence action against ORYSA in % ([10]; 320 g/ha): 20%; Pre-emergence action against ZEAMX in % [11]: 20%
2 | CCOC(=O)CCNC(=O)CSc1nn(-c2ccccn2)c(-c2cncc(F)c2)c1Br [Example I-82] | 90% | 20% | 0% | 90% | 0% | 0% | 0% | Post-emergence action against ECHCG in % [12]: 80%; Post-emergence action against VIOTR in % [13]: 80%; Pre-emergence action against SETVI in % [14]: 90%; Pre-emergence action against BRSNW in % ([15]; 80 g/ha): 20%; Pre-emergence action against BRSNW in % ([15]; 320 g/ha): 20%; Pre-emergence action against TRZAS in % ([8]; 320 g/ha): 20%
